Experimental data as given in patent US20250134825A1, “METHOD FOR PRODUCING MEDICATIONS AND VACCINES” (MSLsolutions GmbH, priority 2022, published 2025).

What was measured:
[1] = single substance, value given in the literature; cited from earlier work
[2] = Stability of vitamin C (model substance for mRNA) in the carrier system; assay type: physicochemical; details: more than 15 wt. % vitamin C, with panthenol, composition of Table 16
[3] = Solubility in solvents (2,5-dimethylisosorbide, water, polyols); details: temperature range 55° C. to 70° C.

For `CCCCCCCCCCCCCCCCCC(=O)OC[C@H](COP(=O)([O-])OCC[N+](C)(C)C)OC(=O)CCCCCCCCCCCCCCCCC` [DSPC, 1,2-distearoyl-sn-glycero-3-phosphocholine], the HLB [1] is given as 4.5.
In the case of `O=C1O[C@H]([C@@H](O)CO)C(O)=C1O` [vitamin C, ascorbic acid], the “stability in the composition or carrier system” value [2] is reported as “high stability”.
In the case of `CC(C)CCC[C@@H](C)[C@H]1CC[C@H]2[C@@H]3CC=C4C[C@@H](O)CC[C@]4(C)[C@H]3CC[C@]12C` [cholesterol], the “solubility in 2,5-dimethylisosorbide” value [3] is reported as “dissolved in high concentrations”.
In the case of `CC[C@H](/C=C/[C@@H](C)[C@H]1CC[C@H]2[C@@H]3CC=C4C[C@@H](O)CC[C@]4(C)[C@H]3CC[C@]12C)C(C)C` [stigmasterol], the “concentration completely dissolved in 2,5-dimethylisosorbide” value [3] is reported as “over 50%”.
